Results taken from the NIST ThermoML archive (doi:10.1016/j.tca.2012.10.024).

How the values were obtained:
[1] = relative permittivity at zero frequency (dimensionless); xn = mol fraction of the nth substance listed; conditions: 101 kPa, Liquid, Parallel plate capacitor
[2] = refractive index (Na D-line) (dimensionless); xn = mol fraction of the nth substance listed; conditions: 101 kPa, Liquid, Standard Abbe refractometry

COCCOCCOCCOCCOC [2,5,8,11,14-pentaoxapentadecane] + CCCCCCCC
Conditions	refractive index, 293.15 K	refractive index, 298.15 K	refractive index, 303.15 K	relative permittivity at zero frequency, 293.15 K	relative permittivity at zero frequency, 298.15 K	relative permittivity at zero frequency, 303.15 K
[1], x1 = 0.033	–	–	–	2.107	2.098	2.088
[1], x1 = 0.0659	–	–	–	2.254	2.242	2.23
[1], x1 = 0.0998	–	–	–	2.413	2.398	2.382
[1], x1 = 0.133	–	–	–	2.577	2.558	2.538
[1], x1 = 0.1645	–	–	–	2.736	2.715	2.693
[1], x1 = 0.2003	–	–	–	2.922	2.896	2.87
[1], x1 = 0.2488	–	–	–	3.19	3.158	3.126
[1], x1 = 0.3002	–	–	–	3.476	3.438	3.4
[1], x1 = 0.3486	–	–	–	3.762	3.718	3.675
[1], x1 = 0.3951	–	–	–	4.03	3.981	3.931
[1], x1 = 0.4461	–	–	–	4.347	4.291	4.234
[1], x1 = 0.5092	–	–	–	4.738	4.674	4.61
[1], x1 = 0.5516	–	–	–	5.005	4.937	4.867
[1], x1 = 0.6003	–	–	–	5.313	5.238	5.163
[1], x1 = 0.6409	–	–	–	5.578	5.499	5.42
[1], x1 = 0.693	–	–	–	5.909	5.823	5.736
[1], x1 = 0.7072	–	–	–	6.004	5.916	5.827
[1], x1 = 0.7515	–	–	–	6.298	6.205	6.111
[1], x1 = 0.8002	–	–	–	6.622	6.523	6.421
[1], x1 = 0.8461	–	–	–	6.943	6.838	6.732
[1], x1 = 0.8985	–	–	–	7.279	7.168	7.057
[1], x1 = 0.9441	–	–	–	7.585	7.469	7.351
[2], x1 = 0.0503	1.3993	1.3969	1.3946	–	–	–
[2], x1 = 0.1003	1.4011	1.3987	1.3965	–	–	–
[2], x1 = 0.1515	1.4031	1.4007	1.3985	–	–	–
[2], x1 = 0.2061	1.4052	1.4028	1.4006	–	–	–
[2], x1 = 0.245	1.4067	1.4043	1.4021	–	–	–
[2], x1 = 0.305	1.4091	1.4067	1.4045	–	–	–
[2], x1 = 0.3569	1.4111	1.4087	1.4065	–	–	–
[2], x1 = 0.4054	1.4127	1.4106	1.4084	–	–	–
[2], x1 = 0.4487	1.4144	1.4122	1.41	–	–	–
[2], x1 = 0.5043	1.4163	1.4142	1.4121	–	–	–
[2], x1 = 0.5537	1.4182	1.4159	1.4138	–	–	–
[2], x1 = 0.5963	1.4195	1.4173	1.4151	–	–	–
[2], x1 = 0.6473	1.4213	1.4191	1.417	–	–	–
[2], x1 = 0.693	1.4228	1.4208	1.4186	–	–	–
[2], x1 = 0.7515	1.4248	1.4227	1.4207	–	–	–
[2], x1 = 0.8067	1.4268	1.4248	1.423	–	–	–
[2], x1 = 0.8475	1.4281	1.426	1.4239	–	–	–
[2], x1 = 0.8941	1.4295	1.4275	1.4256	–	–	–
[2], x1 = 0.947	1.431	1.429	1.4271	–	–	–

COCCOCCOCCOCCOC [2,5,8,11,14-pentaoxapentadecane] + CCCCCO
Conditions	refractive index, 293.15 K	refractive index, 298.15 K	refractive index, 303.15 K	relative permittivity at zero frequency, 293.15 K	relative permittivity at zero frequency, 298.15 K	relative permittivity at zero frequency, 303.15 K
[1], x2 = 0.0505	–	–	–	7.99	7.863	7.737
[1], x2 = 0.1002	–	–	–	7.97	7.843	7.715
[1], x2 = 0.1509	–	–	–	8.043	7.911	7.779
[1], x2 = 0.1919	–	–	–	8.041	7.906	7.771
[1], x2 = 0.2458	–	–	–	8.132	7.993	7.854
[1], x2 = 0.291	–	–	–	8.15	8.009	7.866
[1], x2 = 0.3384	–	–	–	8.271	8.119	7.968
[1], x2 = 0.3986	–	–	–	8.344	8.186	8.029
[1], x2 = 0.4554	–	–	–	8.523	8.35	8.18
[1], x2 = 0.493	–	–	–	8.615	8.438	8.26
[1], x2 = 0.5496	–	–	–	8.857	8.662	8.469
[1], x2 = 0.5931	–	–	–	9.027	8.819	8.615
[1], x2 = 0.6455	–	–	–	9.353	9.122	8.896
[1], x2 = 0.6979	–	–	–	9.71	9.454	9.203
[1], x2 = 0.7424	–	–	–	10.138	9.853	9.577
[1], x2 = 0.7959	–	–	–	10.73	10.413	10.103
[1], x2 = 0.8372	–	–	–	11.351	10.992	10.643
[1], x2 = 0.8679	–	–	–	11.894	11.506	11.123
[1], x2 = 0.8987	–	–	–	12.519	12.102	11.691
[1], x2 = 0.9225	–	–	–	13.119	12.665	12.217
[1], x2 = 0.9488	–	–	–	13.878	13.383	12.896
[1], x2 = 0.9793	–	–	–	14.929	14.377	13.834
[2], x2 = 0.0505	1.4319	1.4302	1.4279	–	–	–
[2], x2 = 0.1002	1.4315	1.4294	1.4273	–	–	–
[2], x2 = 0.1509	1.4305	1.4286	1.4265	–	–	–
[2], x2 = 0.1919	1.4301	1.4281	1.4259	–	–	–
[2], x2 = 0.2458	1.4291	1.4272	1.4251	–	–	–
[2], x2 = 0.291	1.4285	1.4265	1.4244	–	–	–
[2], x2 = 0.3384	1.4276	1.4256	1.4236	–	–	–
[2], x2 = 0.3986	1.4265	1.4246	1.4225	–	–	–
[2], x2 = 0.4554	1.4256	1.4235	1.4215	–	–	–
[2], x2 = 0.493	1.4248	1.4229	1.4207	–	–	–
[2], x2 = 0.5496	1.4236	1.4217	1.4196	–	–	–
[2], x2 = 0.5931	1.4227	1.4207	1.4186	–	–	–
[2], x2 = 0.6455	1.4214	1.4194	1.4174	–	–	–
[2], x2 = 0.6979	1.42	1.4181	1.416	–	–	–
[2], x2 = 0.7424	1.4188	1.4168	1.4148	–	–	–
[2], x2 = 0.7959	1.4172	1.4153	1.4133	–	–	–
[2], x2 = 0.8372	1.4159	1.4141	1.4121	–	–	–
[2], x2 = 0.8679	1.4149	1.4131	1.4111	–	–	–
[2], x2 = 0.8987	1.4139	1.4121	1.41	–	–	–
[2], x2 = 0.9225	1.413	1.4112	1.4092	–	–	–
[2], x2 = 0.9488	1.412	1.4102	1.4081	–	–	–
[2], x2 = 0.9793	1.4109	1.409	1.407	–	–	–
